Measurements reported in ChEMBL document CHEMBL1201862, “PubChem BioAssay data set” (2004).
Calls of active or inactive are those of the source.

Key:
[1] = test system: Streptococcus sp. 'group A'; assay: growth inhibition of control SK(-) GAS strain, dose response, counter-screen for streptokinase expression inhibitor project, luminescence, kanamycin, BacTiterGlo, confirmation (AID 1900); type: functional, organism-based
[2] = cytotoxicity toward NIH3T3 fibroblasts, dose response, counter-screen, cell-based, ATP luminescence, mouse fibroblasts (AID 2010); type: functional;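 further: cells exposed to compound for about 90 hours before reading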
[3] = inhibitors of intracellular T. cruzi replication, confirmation, NIH3T3 host cells, beta-gal luminescence (AID 2044); type: functional, cell-based;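 further: intracellular parasites grown in NIH/3T3 mouse fibroblasts as host cells; luminescent beta-galactosidase reporter signal from transgenic T. cruzi replicating inside host cells; inhibitors lower the luminescence signal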
[4] = microbe, parasite or virus in culture; type: functional; details: Mycobacterium tuberculosis
Streptococcus [5] = assay: Group A Streptococcus viability loss, dose response, counter-screen for streptokinase expression inhibitor project, luminescence, BacTiterGlo (AID 1915); type: functional, organism-based;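 further: potency for reduction of bacterial viability or growth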
Streptokinase A = target: T1, Streptokinase A (Streptococcus pyogenes serotype M1, UniProt P10520); assay: S. pyogenes streptokinase expression inhibitors, potency, dose response, plasminogen activation absorbance, OD405 (AID 1914); type: functional, Streptococcus pyogenes M1 GAS;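 further: secreted streptokinase activity via plasminogen activation per viability signal from cell pellet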
T1 sequence (P10520 whole entry): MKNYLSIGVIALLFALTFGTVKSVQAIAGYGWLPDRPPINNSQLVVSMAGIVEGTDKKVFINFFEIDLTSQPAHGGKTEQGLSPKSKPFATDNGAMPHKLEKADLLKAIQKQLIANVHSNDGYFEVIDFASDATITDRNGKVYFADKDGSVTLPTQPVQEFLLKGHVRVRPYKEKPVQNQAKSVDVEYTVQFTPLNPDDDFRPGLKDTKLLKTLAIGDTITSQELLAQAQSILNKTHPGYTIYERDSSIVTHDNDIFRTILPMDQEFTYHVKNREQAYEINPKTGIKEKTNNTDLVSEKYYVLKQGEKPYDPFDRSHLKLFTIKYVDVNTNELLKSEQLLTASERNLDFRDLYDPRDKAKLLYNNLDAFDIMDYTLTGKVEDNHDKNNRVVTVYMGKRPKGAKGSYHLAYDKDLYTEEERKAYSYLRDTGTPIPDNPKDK

Streptococcus [6] = assay: Luminescence Microorganism-Based Dose Response Follow up to Identify Compounds Cytotoxic to Streptococcus. [Related pubchem assays: 1677 (Project Summary), 1915, 1914, 1902 (Retest at Dose), 1900 (Counter Screen), 1662 (Primary HTS)]; type: functional, organism-based
[7] = target: T2, Neuropeptide Y receptor type 1 (Homo sapiens, UniProt P25929); type: functional;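 on IC50: HEK293 cells with a CNG channel challenged with NPY then isoproterenol; potency as antagonist that reverses NPY suppression of cAMP signal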
T2 sequence (P25929 whole entry): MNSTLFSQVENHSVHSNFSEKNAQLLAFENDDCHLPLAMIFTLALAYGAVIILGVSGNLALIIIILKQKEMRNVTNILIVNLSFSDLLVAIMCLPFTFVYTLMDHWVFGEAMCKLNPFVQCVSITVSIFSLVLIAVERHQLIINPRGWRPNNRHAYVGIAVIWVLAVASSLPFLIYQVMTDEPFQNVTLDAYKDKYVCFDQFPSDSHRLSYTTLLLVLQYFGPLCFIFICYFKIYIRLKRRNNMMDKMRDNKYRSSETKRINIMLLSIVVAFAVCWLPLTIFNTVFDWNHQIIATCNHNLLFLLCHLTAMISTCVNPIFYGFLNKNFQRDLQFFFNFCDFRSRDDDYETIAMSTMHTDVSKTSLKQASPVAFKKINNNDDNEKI

[8] = target: T3, Neuropeptide Y receptor type 2 (Homo sapiens, UniProt P49146); type: functional, cell-based;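 on IC50: HEK293 cells expressing the receptor and a CNG channel; stimulus was NPY near EC95 followed by isoproterenol to raise cAMP; antagonist potency measured as restoring cAMP signal that NPY suppresses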
T3 sequence (P49146 whole entry): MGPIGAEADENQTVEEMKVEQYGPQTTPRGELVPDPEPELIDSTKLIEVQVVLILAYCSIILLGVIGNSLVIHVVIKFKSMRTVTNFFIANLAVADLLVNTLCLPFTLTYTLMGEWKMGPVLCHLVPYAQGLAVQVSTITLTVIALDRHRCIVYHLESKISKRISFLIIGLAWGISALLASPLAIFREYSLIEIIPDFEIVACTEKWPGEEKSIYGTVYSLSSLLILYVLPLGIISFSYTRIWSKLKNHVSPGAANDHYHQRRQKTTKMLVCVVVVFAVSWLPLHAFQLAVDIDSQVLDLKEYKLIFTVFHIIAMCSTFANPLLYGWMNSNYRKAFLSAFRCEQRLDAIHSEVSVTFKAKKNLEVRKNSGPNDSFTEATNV

[9] = enhancers of respiration in Yfh1-depleted yeast, dose response, Friedreich's ataxia, plus single-dose screen (AID 1465); type: functional;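 further: yeast depleted of Yfh1p frataxin homolog grown on glycerol needing respiration; WST-1 tetrazolium dye reduction as measure of cellular dehydrogenase metabolic activity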
[10] = Luminescence Cell-Based Dose Confirmation HTS to Identify Inhibitors of Polyadenylation.; type: functional
[11] = polyadenylation inhibitors in yeast reporter, dose response, luminescence, S. cerevisiae SKY197-pL101 (AID 2525); type: functional, cell-based
INS1 = assay: beta cell apoptosis inhibitors, cytokine rescue, dose response, luminescence, retest (AID 449756); type: functional, cell-based; details: Rattus norvegicus;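 further: cell death triggered by IL-1 beta plus TNF-alpha plus IFN-gamma mixture; protective hits raise ATP signal compared with cytokine alone wells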
HEK293 = assay: Fluorescence-based counterscreen for potentiators or agonists of NPY-Y1: cell-based high-throughput dose response assay for inhibitors of cyclic nucleotide gated ion channel (CNGC) activity. In this assay, the parental HEK293 cell line transfected with a cyclic-nucleotide gated ion channel (CNGC)-based cAMP sensor is used to measure inhibition of isoproterenol-induced CNGC …; type: functional; details: Homo sapiens
Beta-galactosidase = Beta-galactosidase (Escherichia coli, UniProt Q8VNN2); assay: Dose response counterscreen for EBI2 assay utilizing the enzyme, b-galactosidase.; type: functional
Vero = assay: cells; type: functional; details: Chlorocebus sabaeus
[12] = target: T3, Neuropeptide Y receptor type 2; assay: Fluorescence-based counterscreen for agonists of NPY-Y1: cell-based high-throughput dose response assay for agonists of NPY-Y2.; type: functional
[13] = target: T2, Neuropeptide Y receptor type 1; assay: Fluorescence-based dose response cell-based high-throughput screening assay for agonists of NPY-Y1. [Related pubchem assays: 1697 (Screening assay (NPY-Y1 agonists).), 1359 (Screening assay (NPY-Y2 potentiators or agonists).), 1304 (Screening assay (NPY-Y1 potentiators or agonists).), 1704 (Screening assay (CNGC inhibitors).), 1791 (Summary AID.)]; type: functional
[14] = Luminescence Cell-Based Dose Retest to Confirm Inhibitors of Cancer Stem Cells. [Related pubchem assays (depositor defined):AID2717, AID2721]; type: functional; details: Homo sapiens

Chain of Beta-galactosidase (Q8VNN2 whole entry): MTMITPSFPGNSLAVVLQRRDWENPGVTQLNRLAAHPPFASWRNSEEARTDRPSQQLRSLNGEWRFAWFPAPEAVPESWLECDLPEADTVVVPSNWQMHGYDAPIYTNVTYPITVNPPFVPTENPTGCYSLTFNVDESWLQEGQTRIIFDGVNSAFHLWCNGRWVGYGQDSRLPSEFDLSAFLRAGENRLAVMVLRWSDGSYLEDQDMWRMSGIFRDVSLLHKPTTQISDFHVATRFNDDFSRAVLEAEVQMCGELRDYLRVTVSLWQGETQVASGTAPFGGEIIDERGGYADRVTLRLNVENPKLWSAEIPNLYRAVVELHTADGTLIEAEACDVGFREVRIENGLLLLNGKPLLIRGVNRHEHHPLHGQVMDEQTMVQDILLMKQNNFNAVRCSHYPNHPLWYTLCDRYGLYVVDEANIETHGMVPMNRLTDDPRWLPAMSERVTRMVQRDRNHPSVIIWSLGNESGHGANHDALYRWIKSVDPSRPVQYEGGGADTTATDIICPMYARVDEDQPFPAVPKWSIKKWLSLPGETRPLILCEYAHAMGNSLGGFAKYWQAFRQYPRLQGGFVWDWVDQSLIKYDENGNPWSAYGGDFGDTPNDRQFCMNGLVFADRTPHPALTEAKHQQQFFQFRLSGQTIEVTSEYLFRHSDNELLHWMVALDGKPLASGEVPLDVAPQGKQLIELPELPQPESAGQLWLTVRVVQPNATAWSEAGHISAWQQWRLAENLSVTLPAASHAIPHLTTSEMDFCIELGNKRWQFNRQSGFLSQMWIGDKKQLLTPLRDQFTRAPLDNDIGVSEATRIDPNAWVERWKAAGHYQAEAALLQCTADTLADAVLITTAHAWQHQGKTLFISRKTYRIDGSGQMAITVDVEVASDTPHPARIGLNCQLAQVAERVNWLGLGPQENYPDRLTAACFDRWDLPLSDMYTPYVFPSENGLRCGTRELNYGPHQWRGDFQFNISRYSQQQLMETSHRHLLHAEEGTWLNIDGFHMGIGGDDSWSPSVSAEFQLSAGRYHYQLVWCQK

Cc1cc(C)c2nc(-c3ccncc3)cc(C(=O)N3CCN(Cc4ccccc4Cl)CC3)c2c1
EC50 [1]: 3.71 µM (active)
EC50 [2]: > 60 µM (not active)
EC50 [3]: 2.35 µM (active)
CC50 [4]: > 40 µM (active)
EC50 (Streptococcus [5]): > 150 µM (not active)
EC50 (Streptokinase A): 10.3 µM (active)
EC50 (Streptococcus [6]): 9.94 µM (active)

CCOc1nc(SCCOc2ccc(Cl)cc2Cl)nc(N(C)C)n1
IC50 [7]: 5.54 µM (active)
IC50 [8]: 5.52 µM (active)

CC1(OC(=O)C2CCCC2)C(=O)C=C2C=C(c3ccsc3)N(Cc3ccco3)C=C2C1=O (centres undefined)
EC50 [9]: > 100 µM (active)

CC(=O)c1ccc(Sc2ccccc2)c([N+](=O)[O-])c1
EC50 [10]: 11.4 µM (active)
EC50 [11]: 2.88 µM (active)

O=C(c1cc(-c2cccc(O)c2)on1)N1CCN(C(c2ccccc2)c2ccccc2)CC1
AC50 (INS1): 9.7 µM (active)
IC50 (HEK293): > 35.4 µM (not active)
IC50 (Beta-galactosidase): 151 µM (inactive)
CC50 (Vero): 15.4 µM (active)
EC50 [12]: > 35.4 µM (not active)
EC50 [13]: > 35.4 µM (not active)
AC50 [14]: 1.58 µM (active)
